Reference: US4444759A, “GnRH Antagonists II” (The Salk Institute for Biological Studies, priority 1982, dated 1984)
Square brackets hold non-standard residues; d marks the D form. Peptide text beside a SMILES is read from it. dPhe(4-NO2) = N[C@H](Cc1ccc([N+](=O)[O-])cc1)C(=O)O; dPhe(4-NH2) = Nc1ccc(C[C@@H](N)C(=O)O)cc1; dPhe(4-Br) = N[C@H](Cc1ccc(Br)cc1)C(=O)O; dPhe(4-Cl) = N[C@H](Cc1ccc(Cl)cc1)C(=O)O; dPhe(4-F) = N[C@H](Cc1ccc(F)cc1)C(=O)O; d2Nal = N[C@H](Cc1ccc2ccccc2c1)C(=O)O

Test system: LH released by 3 nanomolar GnRH in dissociated rat pituitary cells
Type: cell-based
Settings: not given
Experimental: The peptide is assayed in vitro and in vivo. The in vitro test is made using dissociated rat pituitary cells maintained in culture for 4 days prior to the assay. The levels of LH mediated in response to the application of peptides is assayed by specific radioimmunoassay for rat LH. Control dishes of cells only receive a measure which is 3 nanomolar in GnRH; experimental dishes receive a measure 3 nanomolar in GnRH plus a measure having either the present standard antagonist (for comparison purposes) i.e. [Ac-dehydro Pro^1, 4-F-D-Phe^2, D-Trp^3,6 ]-GnRH or the test peptide in concentrations ranging from 0.01 to 10 nanomolar. The amount of LH secreted in the samples treated only with GnRH is compared with that secreted by the samples treated with the peptide plus GnRH.
The ability of the test peptide to reduce the amount of LH released by 3 nanomolar GnRH is compared to that of the present standard peptide. The results are calculated using 3-5 doses of each of the peptides by the statistical program BIOPROG (provided by D. Rodbard NICHD) and are expressed as a potency relative to the present standard. The standard peptide usually blocks 50% of the LH released by GnRH at less than a ratio of 0.1 [antagonist]/1[GnRH].

| Compound | in vitro Potency relative to [Ac-dehydro Pro1, 4-F-D-Phe2, D-Trp3,6]-GnRH |
| --- | --- |
| CC(=O)N[C@H](Cc1ccc2ccccc2c1)C(=O)N[C@H](Cc1ccc(F)cc1)C(=O)N[C@H](Cc1c[nH]c2ccccc12)C(=O)N[C@@H](CO)C(=O)N[C@@H](Cc1ccc(O)cc1)C(=O)N[C@H](CCCNC(=N)N)C(=O)N[C@@H](CC(C)C)C(=O)N[C@@H](CCCNC(=N)N)C(=O)N1CCC[C@H]1C(=O)NCC(N)=O [Peptide 1, [Ac-β-D-2NAL^1,4-F-D-Phe^2,D-Trp^3, D-Arg^6]-GnRH] (Ac-[d2Nal][dPhe(4-F)][dW]SY[dR]LRPG-NH2) | 0.44 |
| CC(=O)N[C@H](Cc1ccc2ccccc2c1)C(=O)N[C@H](Cc1ccc(F)cc1)C(=O)N[C@H](Cc1c[nH]c2ccccc12)C(=O)N[C@@H](CO)C(=O)N[C@@H](Cc1ccc(O)cc1)C(=O)N[C@H](Cc1ccc(N)cc1)C(=O)N[C@@H](CC(C)C)C(=O)N[C@@H](CCCNC(=N)N)C(=O)N1CCC[C@H]1C(=O)NCC(N)=O [Peptide 2] (Ac-[d2Nal][dPhe(4-F)][dW]SY[dPhe(4-NH2)]LRPG-NH2) | 1.4 |
| CC(=O)N[C@H](Cc1ccc2ccccc2c1)C(=O)N[C@H](Cc1ccc(Cl)cc1)C(=O)N[C@H](Cc1c[nH]c2ccccc12)C(=O)N[C@@H](CO)C(=O)N[C@@H](Cc1ccc(O)cc1)C(=O)N[C@H](CCCNC(=N)N)C(=O)N[C@@H](CC(C)C)C(=O)N[C@@H](CCCNC(=N)N)C(=O)N1CCC[C@H]1C(=O)NCC(N)=O [Peptide 3] (Ac-[d2Nal][dPhe(4-Cl)][dW]SY[dR]LRPG-NH2) | 0.56 |
| CCNC(=O)[C@@H]1CCCN1C(=O)[C@H](CCCNC(=N)N)NC(=O)[C@H](CC(C)C)NC(=O)[C@@H](CCCNC(=N)N)NC(=O)[C@H](Cc1ccc(O)cc1)NC(=O)[C@H](CO)NC(=O)[C@@H](Cc1c[nH]c2ccccc12)NC(=O)[C@@H](Cc1ccc(Cl)cc1)NC(=O)[C@@H](Cc1ccc2ccccc2c1)NC(C)=O [Peptide 4] (Ac-[d2Nal][dPhe(4-Cl)][dW]SY[dR]LRP-NHEt) | 0.38 |
| CCNC(=O)[C@@H]1CCCN1C(=O)[C@H](CCCNC(=N)N)NC(=O)[C@H](CC(C)C)NC(=O)[C@@H](CCCNC(=N)N)NC(=O)[C@H](Cc1ccc(O)cc1)NC(=O)[C@H](CO)NC(=O)[C@@H](Cc1c[nH]c2ccccc12)NC(=O)[C@@H](Cc1ccc([N+](=O)[O-])cc1)NC(=O)[C@@H](Cc1ccc2ccccc2c1)NC(C)=O [Peptide 5] (Ac-[d2Nal][dPhe(4-NO2)][dW]SY[dR]LRP-NHEt) | 0.20 |
| CCNC(=O)[C@@H]1CCCN1C(=O)[C@H](CCCNC(=N)N)NC(=O)[C@H](CC(C)C)NC(=O)[C@@H](CCCNC(=N)N)NC(=O)[C@H](Cc1ccc(O)cc1)NC(=O)[C@H](CO)NC(=O)[C@@H](Cc1c[nH]c2ccccc12)NC(=O)[C@@H](Cc1ccc(Br)cc1)NC(=O)[C@@H](Cc1ccc2ccccc2c1)NC(C)=O [Peptide 6] (Ac-[d2Nal][dPhe(4-Br)][dW]SY[dR]LRP-NHEt) | 0.46 |
| CC(=O)N[C@H](Cc1ccc2ccccc2c1)C(=O)N[C@H](Cc1ccc(F)cc1)C(=O)N[C@H](Cc1c[nH]c2ccccc12)C(=O)N[C@@H](CO)C(=O)N[C@@H](Cc1ccc(O)cc1)C(=O)N[C@H](CCCNC(=N)N)C(=O)N[C@@H](CC(C)C)C(=O)N[C@@H](CCCNC(=N)N)C(=O)N1CCC[C@H]1C(=O)N[C@H](C)C(N)=O [Peptide 7] (Ac-[d2Nal][dPhe(4-F)][dW]SY[dR]LRP[dA]-NH2) | 0.63 |

Same assay, conditions: 3 nanomolar GnRH; usual value

| Compound | ratio [antagonist]/1[GnRH] that blocks 50% of the LH released by GnRH |
| --- | --- |
| [Ac-dehydro Pro^1, 4-F-D-Phe^2, D-Trp^3,6 ]-GnRH [standard peptide, reference compound] | < 0.1 [antagonist]/1[GnRH] |
